How the values were obtained:
Format in all cases: cell-based
[1] = target: T1, hDectin-1a (Homo sapiens, UniProt Q9BXN2); test: Human CLR agonist screening, NF-κB SEAP reporter in HEK293 cells; conditions: agonist mode, Curdlan 100 μg/mL
T1 construct: expressed in transfected cells; host or cells: HEK293
Experimental: (§1) Toll-Like Receptor (TLR), NOD-Like Receptor (NLR) and C-Type Lectin Receptor (CLR) stimulation were tested by assessing NF-κB activation in HEK293 cells expressing a given TLR, NLR or CLR. The activity of the test articles was tested at one concentration and compared to control ligands. These steps were performed in triplicate.
(§2) hDectin-1a and hDectin-1b: WGP Soluble (0-glucan from S. cerevisiae) at 10 ng/mL Antagonist: 5 ng/mL. Curdlan at 100 μg/mL. Antagonist: 100 μg/mL. Zymosan Depleted (hot alkali treated S. cerevisiae) at 5 μg/mL Antagonist: 3 μg/mL.
(§3) In a 96-well plate (200 μL total volume) containing the appropriate cells (50,000-75,000 cells/well), 20 μL of the test article or the positive control ligand was added to the wells. For the antagonist assay, the test article was incubated with the cells, at 37° C. with 5% CO2, for 30 minutes prior to the addition of the positive control ligand to the wells. The media added to the wells was designed for the detection of NF-κB induced SEAP expression. After a 16-24 hr incubation the optical density (OD) was read at 650 nm on a Molecular Devices SpectraMax 340PC absorbance detector.
(§4) Fold Induction (Ratio of Average Induced Value to Average Non-Induced Value): […]

[2] = target: T2, hDectin-1b (Homo sapiens, UniProt Q9BXN2); test: as above; conditions: agonist mode, Curdlan 100 μg/mL
T2 construct: expressed in transfected cells; host or cells: HEK293
Experimental: as §1, §2, §3, §4

[3] = target: T3, hTLR7 (Homo sapiens, UniProt Q9NYK1); test: Human TLR/NLR agonist screening, NF-κB SEAP reporter in HEK293 cells; conditions: agonist mode, Control+ = CL307 1 μg/mL
T3 construct: expressed in transfected cells; host or cells: HEK293
T3 sequence (Q9NYK1 27-1049): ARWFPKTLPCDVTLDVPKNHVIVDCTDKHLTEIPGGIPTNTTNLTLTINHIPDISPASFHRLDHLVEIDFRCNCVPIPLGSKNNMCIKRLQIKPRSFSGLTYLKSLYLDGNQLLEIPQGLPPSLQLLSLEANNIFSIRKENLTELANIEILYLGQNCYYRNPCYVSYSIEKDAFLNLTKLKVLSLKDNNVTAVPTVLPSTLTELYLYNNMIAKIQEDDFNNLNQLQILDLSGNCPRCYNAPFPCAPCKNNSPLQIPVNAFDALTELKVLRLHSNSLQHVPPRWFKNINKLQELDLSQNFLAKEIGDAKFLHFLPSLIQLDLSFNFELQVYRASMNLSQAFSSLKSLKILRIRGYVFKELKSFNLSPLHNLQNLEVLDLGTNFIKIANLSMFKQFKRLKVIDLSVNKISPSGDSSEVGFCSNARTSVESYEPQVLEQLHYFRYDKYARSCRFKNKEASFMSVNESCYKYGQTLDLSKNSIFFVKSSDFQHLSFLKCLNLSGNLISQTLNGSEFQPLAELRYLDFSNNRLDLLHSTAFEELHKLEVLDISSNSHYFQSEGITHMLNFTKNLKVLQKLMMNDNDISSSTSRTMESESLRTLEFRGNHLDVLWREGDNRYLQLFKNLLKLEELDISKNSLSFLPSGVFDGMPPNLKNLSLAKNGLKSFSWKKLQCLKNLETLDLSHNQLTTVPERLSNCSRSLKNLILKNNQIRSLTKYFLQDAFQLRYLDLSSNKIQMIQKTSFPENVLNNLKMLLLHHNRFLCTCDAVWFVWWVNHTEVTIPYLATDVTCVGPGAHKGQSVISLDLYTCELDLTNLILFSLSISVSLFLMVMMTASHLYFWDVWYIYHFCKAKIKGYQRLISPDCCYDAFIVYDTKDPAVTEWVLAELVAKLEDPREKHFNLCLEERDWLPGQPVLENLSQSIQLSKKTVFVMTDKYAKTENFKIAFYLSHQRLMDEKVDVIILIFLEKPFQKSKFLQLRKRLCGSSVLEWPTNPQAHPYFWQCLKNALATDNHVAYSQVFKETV
Experimental: as §1
hTLR7: CL307 at 1 μg/mL Antagonist: 10 ng/mL.
as §3
The fold induction (ratio of average induced value to average non-induced value) results were as follows: […]

T2 sequence (Q9BXN2 1-201 isoform Q9BXN2-2): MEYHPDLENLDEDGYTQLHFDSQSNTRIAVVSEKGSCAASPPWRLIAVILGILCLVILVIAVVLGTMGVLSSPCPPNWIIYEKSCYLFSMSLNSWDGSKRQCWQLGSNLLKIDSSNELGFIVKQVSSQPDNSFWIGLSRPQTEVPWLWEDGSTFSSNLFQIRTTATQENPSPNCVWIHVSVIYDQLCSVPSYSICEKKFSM
T1 sequence (Q9BXN2 whole entry): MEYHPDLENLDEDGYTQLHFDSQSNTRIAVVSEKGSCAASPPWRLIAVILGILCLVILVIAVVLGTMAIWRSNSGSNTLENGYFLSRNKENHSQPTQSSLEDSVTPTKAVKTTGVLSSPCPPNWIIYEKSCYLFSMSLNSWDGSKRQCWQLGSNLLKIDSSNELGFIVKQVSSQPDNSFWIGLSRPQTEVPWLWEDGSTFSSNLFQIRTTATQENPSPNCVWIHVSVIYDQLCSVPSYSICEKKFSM

Compound: Curdlan
- Fold induction (ratio of average induced value to average non-induced value) [1]: 6
- Fold induction (ratio of average induced value to average non-induced value) [2]: 8

Compound: CCCCNc1nc(N)c2[nH]c(=O)n(Cc3ccc(C(=O)NCC(=O)NCCCNCCCCNCCCN)cc3)c2n1 [CL307]
- Fold induction (ratio of average induced value to average non-induced value) [3]: 34
